Measured values published in PubChem BioAssay AID1963985 (Molecular Pharmacology Branch, DTP, NCI, 2024).

Tested on: 252836-082-R-J2-PDC tumor spheroids, viability
Assay: Anticancer human tumor 252836-082-R-J2-PDC patient-derived head and neck squamous cell carcinoma cell line growth inhibition [PI3K]
Conditions: spheroids with HUVEC and MSC; for IC50: curve of first compound; for viability, T/C: stronger effect = lower value
Procedure, shortened: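 High-throughput combination screen: PI3K inhibitors crossed with targeted small molecules on complex spheroids of tumor cells, HUVEC and MSCs at 37 degrees C, 5% CO2. Top concentration was at or near clinical Cmax (otherwise 10 microM), with half-log decrements.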

[1] = second compound 0.00316 µM, first compound 0.0316 µM
[2] = second compound 0.00316 µM, first compound 0.1 µM
[3] = second compound 0.00316 µM, first compound 0.316 µM
[4] = second compound 0.00316 µM, first compound 1 µM
[5] = second compound 0.01 µM, first compound 0.0316 µM
[6] = second compound 0.01 µM, first compound 0.1 µM
[7] = second compound 0.01 µM, first compound 0.316 µM
[8] = second compound 0.01 µM, first compound 1 µM
[9] = second compound 0.0316 µM, first compound 0.0316 µM
[10] = second compound 0.0316 µM, first compound 0.1 µM
[11] = second compound 0.0316 µM, first compound 0.316 µM
[12] = second compound 0.0316 µM, first compound 1 µM
[13] = second compound 0.1 µM, first compound 0.0316 µM
[14] = second compound 0.1 µM, first compound 0.1 µM
[15] = second compound 0.1 µM, first compound 0.316 µM
[16] = second compound 0.1 µM, first compound 1 µM
[17] = second compound 0.316 µM, first compound 0.0316 µM
[18] = second compound 0.316 µM, first compound 0.1 µM
[19] = second compound 0.316 µM, first compound 0.316 µM
[20] = second compound 0.316 µM, first compound 1 µM
[21] = second compound 1 µM, first compound 0.0316 µM
[22] = second compound 1 µM, first compound 0.1 µM
[23] = second compound 1 µM, first compound 0.316 µM
[24] = second compound 1 µM, first compound 1 µM
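Note: spheroids exposed to agents for seven days before readout.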
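Throughout, for viability, T/C: percent of vehicle DMSO control viability so 100% = untreated growth.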

CCN1CCN(Cc2ccc(Nc3ncc(F)c(-c4cc(F)c5nc(C)n(C(C)C)c5c4)n3)nc2)CC1 + CC(Nc1ccc2c(c1)OCCn1cc(N3C(=O)OCC3C(F)F)nc1-2)C(N)=O
IC50 (second compound 0.00316 µM): > 1000 nM
IC50 (second compound 0.01 µM): > 1000 nM
IC50 (second compound 0.0316 µM): > 1000 nM
IC50 (second compound 0.1 µM): > 1000 nM
IC50 (second compound 0.316 µM): 36.1 nM
IC50 (second compound 1 µM): < 3.16 nM
viability, T/C (second compound 0.00316 µM, first compound 0.00316 µM): 87.8%
viability, T/C (second compound 0.00316 µM, first compound 0.01 µM): 86.1%
viability, T/C [1]: 75.3%
viability, T/C [2]: 93.1%
viability, T/C [3]: 82.7%
viability, T/C [4]: 76.5%
viability, T/C (second compound 0.01 µM, first compound 0.00316 µM): 90.3%
viability, T/C (second compound 0.01 µM, first compound 0.01 µM): 82.5%
viability, T/C [5]: 94.4%
viability, T/C [6]: 78.7%
viability, T/C [7]: 90%
viability, T/C [8]: 70.3%
viability, T/C (second compound 0.0316 µM, first compound 0.00316 µM): 79.1%
viability, T/C (second compound 0.0316 µM, first compound 0.01 µM): 79.6%
viability, T/C [9]: 73%
viability, T/C [10]: 74.1%
viability, T/C [11]: 80.6%
viability, T/C [12]: 81.3%
viability, T/C (second compound 0.1 µM, first compound 0.00316 µM): 73.7%
viability, T/C (second compound 0.1 µM, first compound 0.01 µM): 59.7%
viability, T/C [13]: 58.8%
viability, T/C [14]: 66.5%
viability, T/C [15]: 52.3%
viability, T/C [16]: 54.2%
viability, T/C (second compound 0.316 µM, first compound 0.00316 µM): 51.2%
viability, T/C (second compound 0.316 µM, first compound 0.01 µM): 47.4%
viability, T/C [17]: 51.5%
viability, T/C [18]: 53.3%
viability, T/C [19]: 50.8%
viability, T/C [20]: 44.3%
viability, T/C (second compound 1 µM, first compound 0.00316 µM): 47%
viability, T/C (second compound 1 µM, first compound 0.01 µM): 43.9%
viability, T/C [21]: 43.5%
viability, T/C [22]: 36.8%
viability, T/C [23]: 40.5%
viability, T/C [24]: 31.8%

CNC(=O)c1ccc(N2C(=S)N(c3ccc(C#N)c(C(F)(F)F)c3)C(=O)C2(C)C)cc1F + CC(Nc1ccc2c(c1)OCCn1cc(N3C(=O)OCC3C(F)F)nc1-2)C(N)=O
IC50 (second compound 0.00316 µM): > 10000 nM
IC50 (second compound 0.01 µM): > 10000 nM
IC50 (second compound 0.0316 µM): > 10000 nM
IC50 (second compound 0.1 µM): > 10000 nM
IC50 (second compound 0.316 µM): > 10000 nM
IC50 (second compound 1 µM): < 31.6 nM
viability, T/C [1]: 97%
viability, T/C [2]: 84.2%
viability, T/C [3]: 92.5%
viability, T/C [4]: 91.6%
viability, T/C (second compound 0.00316 µM, first compound 3.16 µM): 102%
viability, T/C (second compound 0.00316 µM, first compound 10 µM): 84.1%
viability, T/C [5]: 96.5%
viability, T/C [6]: 99.9%
viability, T/C [7]: 82%
viability, T/C [8]: 89.1%
viability, T/C (second compound 0.01 µM, first compound 3.16 µM): 103%
viability, T/C (second compound 0.01 µM, first compound 10 µM): 98%
viability, T/C [9]: 90.8%
viability, T/C [10]: 81.7%
viability, T/C [11]: 80.2%
viability, T/C [12]: 77.1%
viability, T/C (second compound 0.0316 µM, first compound 3.16 µM): 75.1%
viability, T/C (second compound 0.0316 µM, first compound 10 µM): 78.9%
viability, T/C [13]: 68.9%
viability, T/C [14]: 69.5%
viability, T/C [15]: 73.7%
viability, T/C [16]: 66%
viability, T/C (second compound 0.1 µM, first compound 3.16 µM): 61.5%
viability, T/C (second compound 0.1 µM, first compound 10 µM): 67.9%
viability, T/C [17]: 55.4%
viability, T/C [18]: 58.3%
viability, T/C [19]: 53%
viability, T/C [20]: 51.9%
viability, T/C (second compound 0.316 µM, first compound 3.16 µM): 61.9%
viability, T/C (second compound 0.316 µM, first compound 10 µM): 52.3%
viability, T/C [21]: 46.3%
viability, T/C [22]: 44%
viability, T/C [23]: 43.2%
viability, T/C [24]: 50.5%
viability, T/C (second compound 1 µM, first compound 3.16 µM): 51.4%
viability, T/C (second compound 1 µM, first compound 10 µM): 45.8%
